Experimental data taken from article PMC3885398, “Evaluation of the Antitumor Effects of BPR1J-340, a Potent and Selective FLT3 Inhibitor, Alone or in Combination with an HDAC Inhibitor, Vorinostat, in AML Cancer” (PLoS ONE, 2014).
Values joined by “and” are separate entries in the source; they are usually repeats but may differ in a detail not shown here. Equal values may be shown once. “Also recorded” adds a separate entry of the source.

Legend:
Aurora A kinase = Aurora A kinase (Homo sapiens, UniProt O14965); assay: Aurora A kinase inhibition; format: biochemical
Aurora A kinase, sequence (O14965 whole entry): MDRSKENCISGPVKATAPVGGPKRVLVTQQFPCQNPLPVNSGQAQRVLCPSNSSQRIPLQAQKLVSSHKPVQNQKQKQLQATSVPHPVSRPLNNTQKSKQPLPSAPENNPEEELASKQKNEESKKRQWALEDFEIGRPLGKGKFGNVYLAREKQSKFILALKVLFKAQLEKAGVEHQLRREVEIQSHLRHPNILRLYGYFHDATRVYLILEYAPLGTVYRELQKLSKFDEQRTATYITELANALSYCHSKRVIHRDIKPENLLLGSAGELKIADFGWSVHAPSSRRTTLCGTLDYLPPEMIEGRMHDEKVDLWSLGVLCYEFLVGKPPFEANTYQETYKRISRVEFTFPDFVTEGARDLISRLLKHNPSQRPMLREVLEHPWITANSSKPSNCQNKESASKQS
Method: BPR1J-340, a urea-substituted 3-phenyl-1H-5-pyrazolylamine-based compound, was designed through chemical modification of sulfonamide series of derivatives (BPR1J-097 series) by a structure-activity relationship (SAR) study (Fig. 1), [32]. For kinase inhibition specificity screening, BPR1J-340 was tested against 59 protein kinases covering the major oncogenic kinases of human protein kinome. […] In addition, BPR1J-340 inhibited TRKA, which is associated with the growth and metastasis of breast cancers, with an IC50 value of 8 nM. Given the high similarity of the ATP binding pockets of FLT3 and the Aurora kinases, the inhibitory activity toward Aurora A and Aurora B were measured. […] Taken together, BPRJ-340 is a selective kinase inhibitor with in vitro activity against FLT3, VEGFR2, VEGFR3 and TRKA receptor tyrosine kinases.

FLT3-ITD = FLT3-ITD (Homo sapiens, UniProt P36888, ITD); assay: FLT3 phosphorylation in transfected HEK293T cells, Western blot; format: cell-based; conditions: HEK293T cells expressing FLT3-ITD, 1 hr, FLT3 ligand 50 ng/mL 5 min
Method: (§1) Cells were lysed in lysis buffer (50 mM Tris, pH 8.0, 150 mM NaCl, 1% Triton X-100, 0.5% sodium deoxycholate, 0.1% SDS, 1 mM sodium orthovanadate, 1 mM PMSF, and 1 mM DTT). Protein lysates were resolved by SDS-PAGE and transferred onto a polyvinylidene difluoride (PVDF) membrane (Millipore, Bedford, MA, USA). The membranes were immunoblotted with appropriate antibodies and detected using the SuperSignal reagent (Pierce, Rockford, IL, USA) followed by exposure to X-ray film.
(§2) To address whether BPR1J-340 was able to inhibit the FLT3 signaling pathway in FLT3-driven cells, MV4;11 cells were treated with different concentrations of BPR1J-340 for 1 hour, and the phosphorylation status of FLT3 and STAT5 (Signal Transducer and Activator of Transcription 5), a critical down-stream modulator that plays a major role in FLT3-ITD signal transduction for cell expansion and survival, was examined by Western blot analysis. […] To investigate the difference in sensitivity between FLT3-WT and the activating mutants FLT3-ITD and FLT3-D835Y to BPR1J-340, HEK293T cells engineered to express FLT3-WT or mutants FLT3 (FLT3-ITD, FLT3-D835Y) were analyzed. […]
(§3) Figure 2 BPR1J-340 inhibits FLT3-dependent signaling. […] The phosphorylation status of FLT3 and STAT5 were evaluated by Western blot analysis. […] The FLT3 phosphorylation status in the transfected cells was evaluated by Western blot analysis.

FLT3-WT = molecular target: T1, FLT3-WT (Homo sapiens, UniProt P36888); assay: as above; format: cell-based; conditions: HEK293T cells expressing FLT3-WT, 1 hr, FLT3 ligand 50 ng/mL 5 min
T1 construct: expressed in transfected cells; host or cells: HEK293T
Method: as §1, §2, §3

MOLM-13 tumor xenograft = assay: Subcutaneous MOLM-13 tumor xenograft in nude mice; format: in vivo
Method: Male nude mice (Nu-Fox1nu) of eight weeks old were purchased from BioLasco (Ilan, Taiwan). The nude mice (n = 5∼7 per group) were inoculated subcutaneously with MOLM-13 (1×10^6 cells/flank). All human cancer cells were determined to be free of Mycoplasma spp before the inoculation. When tumors size reached 100∼200 mm^3 and a large size of >500 mm^3, the animals were grouped and treated with the BPR1J-340 (5 and 20 mg/kg, i.v.) or vehicle as control once daily for 5 days per week for two or three weeks. Tumor sizes were measured and calculated with the formula of length×width^2/2 after the initiation of the treatments. Tumor size and animal body weight were measured twice a week after the tumor cell inoculation. At the end of the study, animals were euthanized by carbon dioxide inhalation followed by cervical dislocation. The significant difference between the treated and vehicle control were analyzed by using one-way ANOVA and Student-Newman-Keuls test. The level of a statistical significance was set at p<0.05.

FLT3 D835Y = molecular target: T2, FLT3 D835Y (Homo sapiens, UniProt P36888, D835Y); assay: FLT3 phosphorylation in transfected HEK293T cells, Western blot; format: cell-based; set-up: expressed in transfected cells; host or cells: HEK293T; conditions: HEK293T cells expressing FLT3-D835Y, 1 hr, FLT3 ligand 50 ng/mL 5 min
T2 sequence (P36888 27-993 D835Y): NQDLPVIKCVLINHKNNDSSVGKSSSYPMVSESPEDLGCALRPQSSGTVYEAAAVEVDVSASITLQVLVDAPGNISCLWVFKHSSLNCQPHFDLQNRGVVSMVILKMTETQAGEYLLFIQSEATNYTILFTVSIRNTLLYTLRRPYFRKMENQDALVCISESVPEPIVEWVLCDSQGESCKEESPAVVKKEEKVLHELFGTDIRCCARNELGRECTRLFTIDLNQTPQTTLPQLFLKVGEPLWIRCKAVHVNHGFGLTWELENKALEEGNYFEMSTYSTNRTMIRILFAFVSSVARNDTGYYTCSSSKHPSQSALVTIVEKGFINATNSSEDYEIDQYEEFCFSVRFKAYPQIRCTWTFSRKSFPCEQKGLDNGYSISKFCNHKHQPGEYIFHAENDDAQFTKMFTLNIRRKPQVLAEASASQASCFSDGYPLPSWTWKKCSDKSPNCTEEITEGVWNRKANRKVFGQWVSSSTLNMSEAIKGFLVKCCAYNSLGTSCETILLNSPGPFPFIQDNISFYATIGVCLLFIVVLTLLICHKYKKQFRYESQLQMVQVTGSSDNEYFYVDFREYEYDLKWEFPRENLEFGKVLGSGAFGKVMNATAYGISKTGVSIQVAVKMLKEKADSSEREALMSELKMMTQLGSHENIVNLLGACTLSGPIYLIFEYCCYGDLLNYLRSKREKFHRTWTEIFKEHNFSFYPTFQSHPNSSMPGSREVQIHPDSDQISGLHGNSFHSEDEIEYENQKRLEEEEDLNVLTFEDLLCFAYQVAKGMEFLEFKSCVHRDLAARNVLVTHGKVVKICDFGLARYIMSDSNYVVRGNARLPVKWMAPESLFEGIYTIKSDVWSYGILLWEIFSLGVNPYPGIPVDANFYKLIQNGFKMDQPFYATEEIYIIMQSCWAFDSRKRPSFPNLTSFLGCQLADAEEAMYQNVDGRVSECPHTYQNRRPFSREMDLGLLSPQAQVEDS
Method: as §1, §2, §3

CCc1cc(NC(=O)NCc2ccc(-c3cc(NC(=O)c4ccc(CN5CCN(C)CC5)cc4)[nH]n3)cc2)no1 [BPR1J-340, N1-(3-4-[([(5-ethyl-3-isoxazolyl)amino]carbonylamino)methyl]phenyl-1H-5-pyrazolyl)-4-[(4-methylpiperazino)methyl]benzamide]
IC50 (Aurora A kinase): 1040 nM
IC50 (FLT3-ITD): 10 to 100 nM
IC50 (FLT3-WT): 10 to 100 nM
CR ratio (MOLM-13 tumor xenograft; 5 mg/kg): 67%
tumor response (MOLM-13 tumor xenograft; 5 mg/kg i.v. qd, days 1–5 of each week for 3 weeks, tumors about 200 mm^3): complete regression of the tumor in all animals by day 22; also recorded: inhibited
complete regression (CR), animals (MOLM-13 tumor xenograft; 5 mg/kg i.v. qd, days 1–5 weekly for 3 weeks, within 31 days of post-treatment observation): 4 of 6
tumor response, large tumors (MOLM-13 tumor xenograft; 20 mg/kg i.v., days 1–5 of each week for 2 weeks, average tumor volume 630 mm^3, 48-day follow up): complete and durable tumor regression; also recorded: significantly reversed
body weight, mortality, tolerability (MOLM-13 tumor xenograft; nude mice, 5 and 20 mg/kg/day i.v.): well-tolerated
IC50 (FLT3 D835Y): 10 to 100 nM and ~100 nM
